Reference: ChEMBL document CHEMBL1128104, “A bis-[N-3-(1-hydroxy-1-methyl-ethyl)-benzyl)-cyclic urea as a HIV protease inhibitor” (Bioorg Med Chem Lett, 1995)
pIC50, pKi: −log10 of the molar value.

Tests used:
[1] = system: Lymphocytoid cell line; assay: Tested for cytotoxicity (concentration required to reduce 50% of the viable cell population) in presence of metabolizable tetrazolium dye in human lymphocytoid cell lines MT-2 or MT-4 using the RF strain of HIV-1; type: functional; settings: read-out: TC50 (the source's name)
[2] = system: Lymphocytoid cell line; assay: Tested for the ability to inhibit viral replication (HIV-1 RNA) in human lymphocytoid cell lines MT-2 or MT-4 using the RF strain of HIV-1; type: functional
[3] = target: Human immunodeficiency virus type 1 protease (Human immunodeficiency virus 1, UniProt Q72874); assay: Tested for inhibitory activity against HIV protease
[4] = system: Human immunodeficiency virus 1; assay: Tested for the ability to block cleavage of HIV-1 gag polyprotein using [35S]methionine-labeled ligand; type: functional, organism-based
[5] = Cmax in plasma was determined upon peroral administration of 10.0 mg/Kg dose in rat; type: ADME, organism-based; parameters: dose 10 mg/Kg, route oral; settings: po
[6] = Tested for systemic clearance upon intravenous administration of 5.0 mg/Kg dose in rat; type: ADME, organism-based; settings: in vivo
[7] = Tested for volume of distribution at steady state upon intravenous administration of 5.0 mg/Kg dose in rat; type: ADME, organism-based; settings: in vivo, read-out: Vss
[8] = Tested for t1/2 upon intravenous administration of 5.0 mg/Kg dose in rat; type: ADME, organism-based; settings: in vivo
[9] = tmax upon peroral administration of 10.0 mg/Kg dose in dog; type: ADME, organism-based, Canis lupus familiaris; settings: in vivo, po
[10] = Bioavailability in dog (dose 10.0 mg/kg p.o.); type: ADME, organism-based, Canis lupus familiaris; settings: in vivo, po
[11] = system: Human immunodeficiency virus; assay: Ability to inhibit p24 mutant variant HxB2 wild type was determined; type: functional; settings: Human immunodeficiency virus 1
[12] = Tested for systemic clearance upon intravenous administration of 5.0 mg/Kg dose in dog; type: ADME, organism-based, Canis lupus familiaris; settings: in vivo
[13] = system: Human immunodeficiency virus; assay: Ability to inhibit p24 mutant variant V82F/[…] was determined; type: functional; settings: Human immunodeficiency virus 1
[14] = Cmax in plasma was determined upon peroral administration of 10.0 mg/Kg dose in dog; type: ADME, organism-based, Canis lupus familiaris; parameters: dose 10 mg/Kg, route oral; settings: po
[15] = Tested for volume of distribution at steady state upon intravenous administration of 5.0 mg/Kg dose in dog; type: ADME, organism-based, Canis lupus familiaris; settings: in vivo, read-out: Vss
[16] = Tested for t1/2 upon peroral administration of 10.0 mg/Kg dose in dog; type: ADME, organism-based, Canis lupus familiaris; settings: in vivo, po
[17] = Tested for t1/2 upon intravenous administration of 5.0 mg/Kg dose in dog; type: ADME, organism-based, Canis lupus familiaris; settings: in vivo
[18] = system: Human immunodeficiency virus; assay: Ability to inhibit p24 mutant variant […] was determined; type: functional; settings: Human immunodeficiency virus 1
[19] = system: Human immunodeficiency virus; assay: Ability to inhibit p24 mutant variant V82F was determined; type: functional; settings: Human immunodeficiency virus 1
[20] = Tested for t1/2 upon peroral administration of 10.0 mg/Kg dose in rat; type: ADME, organism-based; settings: in vivo, po
[21] = Bioavailability upon peroral administration of 10.0 mg/Kg dose in rat; type: ADME, organism-based; settings: in vivo, po, read-out: Bioavailabiility
[22] = tmax upon peroral administration of 10.0 mg/Kg dose in rat; type: ADME, organism-based; settings: in vivo, po

CC(C)(O)c1ccc(CN2C(=O)N(Cc3ccc(C(C)(C)O)cc3)[C@H](Cc3ccccc3)[C@H](O)[C@@H](O)[C@H]2Cc2ccccc2)cc1
CC50 [1]: 39300 nM
IC90 [2]: 8040 nM
pKi [3]: 8.66

O=C1N(Cc2cccc(CO)c2)[C@H](Cc2ccccc2)[C@H](O)[C@@H](O)[C@@H](Cc2ccccc2)N1Cc1cccc(CO)c1
CC50 [1]: 54700 nM
IC90 [2]: 38.8 nM
pIC50 [4]: 8.10
Cmax [5]: 470 ng/mL
clearance [6]: 103 mL/min/kg
Vd [7]: 9.8 L/kg
half-life [8]: 1.1 h
pKi [3]: 9.40

CC(C)(O)c1cccc(CN2C(=O)N(Cc3cccc(C(C)(C)O)c3)[C@H](Cc3ccccc3)[C@H](O)[C@@H](O)[C@H]2Cc2ccccc2)c1
Tmax [9]: 0.42 h
bioavailability [10]: < 4%
CC50 [1]: 33400 nM
IC90 [11]: 22.2 nM
clearance [12]: 15.5 mL/min/kg
IC90 [2]: 33.7 nM
IC90 [13]: 5780 nM
Cmax [14]: 240 ng/mL
pIC50 [4]: 7.82
Cmax [5]: 630 ng/mL
clearance [6]: 31.8 mL/min/kg
Vd [15]: 1.65 L/kg
Vd [7]: 3.04 L/kg
half-life [8]: 1.03 h
half-life [16]: 0.65 h
half-life [17]: 1.2 h
IC90 [18]: 72.2 nM
IC90 [19]: 84.3 nM
half-life [20]: 1.5 h
pKi [3]: 10.17

O=C1N(Cc2ccc(CO)cc2)[C@H](Cc2ccccc2)[C@H](O)[C@@H](O)[C@@H](Cc2ccccc2)N1Cc1ccc(CO)cc1 [DMP-323]
bioavailability [21]: 27.1%
Tmax [9]: 0.5 h
bioavailability [10]: 38.4%
CC50 [1]: 67500 nM
IC90 [11]: 95.6 nM
clearance [12]: 24.7 mL/min/kg
IC90 [2]: 176 nM
IC90 [13]: 22000 nM
Cmax [14]: 1480 ng/mL
pIC50 [4]: 7.45
Cmax [5]: 450 ng/mL
clearance [6]: 119 mL/min/kg
Vd [15]: 2.28 L/kg
Vd [7]: 6.36 L/kg
half-life [8]: 0.95 h
Tmax [22]: 0.25 h
half-life [16]: 1.08 h
half-life [17]: 1.8 h
IC90 [18]: 989 nM
IC90 [19]: 675 nM
half-life [20]: 1.5 h
pKi [3]: 9.51
